Measured values as given in PubChem BioAssay AID248 (DTP/NCI, 2004).
Toxic doses and inconclusive results are not listed. No stated cut-off is given here; in the data, active means T/C of 150% or more; inactive means T/C below 125%.

System: L1210 leukemia ip in BDF1 mice, survival T/C
Assay: NCI In Vivo Anticancer Drug Screen. Data for tumor model L1210 Leukemia (intraperitoneal) in B6D2F1 (BDF1) mice
Conditions: endpoint: mean survival time, higher = longer survival
In short: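 Each compound was tested against a transplantable tumor grown in mice. The endpoint was survival, with treated animals benchmarked against vehicle controls as a simple ratio.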

[1] = dose: 100.0 mg/kg/injection, schedule: Q04DX003 (ip), vehicle: Klucel (hydroxypropylcellulose) (HPC)
[2] = dose: 100.0 mg/kg/injection, schedule: Q04DX002 (ip), vehicle: Klucel (hydroxypropylcellulose) (HPC)
[3] = dose: 200.0 mg/kg/injection, schedule: Q04DX002 (ip), vehicle: Klucel (hydroxypropylcellulose) (HPC)
[4] = dose: 400.0 mg/kg/injection, schedule: Q04DX002 (ip), vehicle: Klucel (hydroxypropylcellulose) (HPC)

Measured: T/C

O=[N+]([O-])c1cccc(NSNc2cccc([N+](=O)[O-])c2)c1
inactive: dose: 50.0 mg/kg/injection, schedule: Q01DX001 (ip), vehicle: Klucel (hydroxypropylcellulose) (HPC) 100 % of control | dose: 100.0 mg/kg/injection, schedule: Q01DX001 (ip), vehicle: Klucel (hydroxypropylcellulose) (HPC) 98 % of control | dose: 200.0 mg/kg/injection, schedule: Q01DX001 (ip), vehicle: Klucel (hydroxypropylcellulose) (HPC) 87 % of control

CC(C)(C)NCC(CN(CC(CNC(C)(C)C)C(=O)c1ccccc1)C(C)(C)C)C(=O)c1ccccc1 (stereo not given)
inactive: dose: 12.5 mg/kg/injection, schedule: Q01DX009 (ip), vehicle: Klucel (hydroxypropylcellulose) (HPC) 104 % of control | dose: 25.0 mg/kg/injection, schedule: Q01DX009 (ip), vehicle: Klucel (hydroxypropylcellulose) (HPC) 101 % of control | dose: 50.0 mg/kg/injection, schedule: Q01DX009 (ip), vehicle: Klucel (hydroxypropylcellulose) (HPC) 106 % of control | [1] 93 % of control

Cc1ccc(CNC(=O)Nc2cccc(Cl)c2)cc1
inactive: [2] 115 % of control | [3] 102 % of control | [4] 108 % of control

C1=C(c2ccccc2)N2CCN=C2S1
inactive: dose: 50.0 mg/kg/injection, schedule: Q01DX001 (ip), vehicle: carboxymethylcellulose (CMC) 100 % of control

CN(CCOS(=O)(=O)O)CCOS(=O)(=O)O
inactive: dose: 37.5 mg/kg/injection, schedule: Q01DX009 (ip), vehicle: saline 98 % of control | dose: 75.0 mg/kg/injection, schedule: Q01DX009 (ip), vehicle: saline 98 % of control | dose: 75.0 mg/kg/injection, schedule: Q04DX003 (ip), vehicle: saline 102 % of control | dose: 150.0 mg/kg/injection, schedule: Q01DX009 (ip), vehicle: saline 95 % of control | dose: 150.0 mg/kg/injection, schedule: Q04DX003 (ip), vehicle: saline 100 % of control | dose: 300.0 mg/kg/injection, schedule: Q04DX003 (ip), vehicle: saline 96 % of control

NS(=O)(=O)c1ccc(Cl)cc1
inactive: dose: 50.0 mg/kg/injection, schedule: Q01DX009 (ip), vehicle: saline 95 % of control | dose: 100.0 mg/kg/injection, schedule: Q01DX009 (ip), vehicle: saline 102 % of control | [2] 103 % of control | dose: 100.0 mg/kg/injection, schedule: Q04DX003 (ip), vehicle: saline with Tween-80 104 % of control | [3] 103 % of control | dose: 200.0 mg/kg/injection, schedule: Q04DX003 (ip), vehicle: saline with Tween-80 112 % of control | [4] 103 % of control

CCN=C(c1ccc(NC(=O)c2ccc(C(=O)Nc3ccc(C(=NCC)N(CC)C(=O)NCCCCl)cc3)cc2)cc1)N(CC)C(=O)NCCCCl
inactive: dose: 0.5 mg/kg/injection, schedule: Q01DX015 (ip), vehicle: methylcellulose (MC) 100 % of control | dose: 1.0 mg/kg/injection, schedule: Q01DX015 (ip), vehicle: methylcellulose (MC) 102 % of control | dose: 2.0 mg/kg/injection, schedule: Q01DX015 (ip), vehicle: methylcellulose (MC) 111 % of control

CCCP(=S)(CCC)P(=S)(CCC)CCC
inactive: [2] 100 % of control | [3] 92 % of control | [4] 92 % of control

O=C1CCCCC1C(=O)C(F)(F)F (stereo not given)
inactive: dose: 12.5 mg/kg/injection, schedule: Q01DX009 (ip), vehicle: other 104 % of control | dose: 12.5 mg/kg/injection, schedule: Q04DX003 (ip), vehicle: other 103 % of control | dose: 25.0 mg/kg/injection, schedule: Q01DX009 (ip), vehicle: other 104 % of control | dose: 25.0 mg/kg/injection, schedule: Q04DX003 (ip), vehicle: other 93 % of control | dose: 50.0 mg/kg/injection, schedule: Q01DX009 (ip), vehicle: other 98 % of control | dose: 50.0 mg/kg/injection, schedule: Q04DX003 (ip), vehicle: other 97 % of control | dose: 75.0 mg/kg/injection, schedule: Q01DX009 (ip), vehicle: other 97 % of control | dose: 115.0 mg/kg/injection, schedule: Q01DX009 (ip), vehicle: other 87 % of control | dose: 170.0 mg/kg/injection, schedule: Q01DX009 (ip), vehicle: other 89 % of control

CCCC(=O)C(CC)C(=O)Nc1ccccc1 (stereo not given)
inactive: dose: 50.0 mg/kg/injection, schedule: Q04DX003 (ip), vehicle: Klucel (hydroxypropylcellulose) (HPC) 100 % of control | dose: 100.0 mg/kg/injection, schedule: Q01DX001 (ip), vehicle: carboxymethylcellulose (CMC) 94 % of control | [1] 93 % of control | dose: 200.0 mg/kg/injection, schedule: Q01DX001 (ip), vehicle: carboxymethylcellulose (CMC) 105 % of control | dose: 200.0 mg/kg/injection, schedule: Q04DX003 (ip), vehicle: Klucel (hydroxypropylcellulose) (HPC) 102 % of control | dose: 400.0 mg/kg/injection, schedule: Q01DX001 (ip), vehicle: carboxymethylcellulose (CMC) 100 % of control
